Test [1] concerns the target Voltage-gated inwardly rectifying potassium channel KCNH2 (Homo sapiens, UniProt Q12809). It is filed as functional. The conditions noted are these: read-out: AC50.
The target of test [2] is T1, Acetylcholinesterase (Homo sapiens, UniProt P22303). It is filed as functional.
Test [3] deals with T2, Alpha-2C adrenergic receptor (Homo sapiens, UniProt P18825).
T2 sequence (P18825 whole entry): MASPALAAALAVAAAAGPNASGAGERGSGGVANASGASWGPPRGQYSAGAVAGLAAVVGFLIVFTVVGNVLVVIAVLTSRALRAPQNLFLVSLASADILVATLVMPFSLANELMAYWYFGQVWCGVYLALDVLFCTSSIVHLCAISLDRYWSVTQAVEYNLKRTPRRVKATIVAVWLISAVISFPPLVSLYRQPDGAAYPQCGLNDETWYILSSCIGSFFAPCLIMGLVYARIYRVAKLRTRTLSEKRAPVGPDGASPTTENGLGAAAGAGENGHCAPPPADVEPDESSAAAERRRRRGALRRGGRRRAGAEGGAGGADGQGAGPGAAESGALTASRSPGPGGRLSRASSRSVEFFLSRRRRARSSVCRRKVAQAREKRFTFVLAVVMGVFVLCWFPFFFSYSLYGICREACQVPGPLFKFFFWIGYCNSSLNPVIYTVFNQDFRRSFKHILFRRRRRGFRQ
The format is functional.

Test [4] has as its target T3, Muscarinic acetylcholine receptor M5 (Homo sapiens, UniProt P08912).
T3 sequence (P08912 whole entry): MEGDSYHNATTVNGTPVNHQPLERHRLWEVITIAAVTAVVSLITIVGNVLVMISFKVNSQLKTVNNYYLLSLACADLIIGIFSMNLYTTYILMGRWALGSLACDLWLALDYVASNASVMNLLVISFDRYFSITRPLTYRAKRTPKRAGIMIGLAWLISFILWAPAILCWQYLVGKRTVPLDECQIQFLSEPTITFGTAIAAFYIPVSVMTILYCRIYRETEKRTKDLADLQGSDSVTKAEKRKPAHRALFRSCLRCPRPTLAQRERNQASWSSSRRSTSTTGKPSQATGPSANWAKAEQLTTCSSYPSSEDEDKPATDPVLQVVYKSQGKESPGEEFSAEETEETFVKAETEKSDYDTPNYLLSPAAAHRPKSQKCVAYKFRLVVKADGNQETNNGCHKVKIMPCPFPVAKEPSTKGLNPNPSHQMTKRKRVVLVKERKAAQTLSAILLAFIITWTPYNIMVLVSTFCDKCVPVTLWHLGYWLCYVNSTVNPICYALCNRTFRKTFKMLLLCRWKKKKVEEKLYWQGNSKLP

The target in test [5] is T4, Muscarinic acetylcholine receptor M4 (Homo sapiens, UniProt P08173).
T4 sequence (P08173 whole entry): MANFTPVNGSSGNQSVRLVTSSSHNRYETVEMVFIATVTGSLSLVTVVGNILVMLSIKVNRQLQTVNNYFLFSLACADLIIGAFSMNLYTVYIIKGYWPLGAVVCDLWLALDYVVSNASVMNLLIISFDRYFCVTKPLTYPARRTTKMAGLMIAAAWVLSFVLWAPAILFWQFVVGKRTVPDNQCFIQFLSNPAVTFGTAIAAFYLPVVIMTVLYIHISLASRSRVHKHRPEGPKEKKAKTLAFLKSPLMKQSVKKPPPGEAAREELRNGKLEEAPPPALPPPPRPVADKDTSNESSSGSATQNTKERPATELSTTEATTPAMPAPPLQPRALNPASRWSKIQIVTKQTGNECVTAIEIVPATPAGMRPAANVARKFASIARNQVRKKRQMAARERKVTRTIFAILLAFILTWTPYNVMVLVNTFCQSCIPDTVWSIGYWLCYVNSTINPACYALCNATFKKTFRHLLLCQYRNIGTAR

The target in test [6] is T5, Gamma-aminobutyric acid receptor subunit alpha-1 (Rattus norvegicus, UniProt P62813).
T5 sequence (P62813 whole entry): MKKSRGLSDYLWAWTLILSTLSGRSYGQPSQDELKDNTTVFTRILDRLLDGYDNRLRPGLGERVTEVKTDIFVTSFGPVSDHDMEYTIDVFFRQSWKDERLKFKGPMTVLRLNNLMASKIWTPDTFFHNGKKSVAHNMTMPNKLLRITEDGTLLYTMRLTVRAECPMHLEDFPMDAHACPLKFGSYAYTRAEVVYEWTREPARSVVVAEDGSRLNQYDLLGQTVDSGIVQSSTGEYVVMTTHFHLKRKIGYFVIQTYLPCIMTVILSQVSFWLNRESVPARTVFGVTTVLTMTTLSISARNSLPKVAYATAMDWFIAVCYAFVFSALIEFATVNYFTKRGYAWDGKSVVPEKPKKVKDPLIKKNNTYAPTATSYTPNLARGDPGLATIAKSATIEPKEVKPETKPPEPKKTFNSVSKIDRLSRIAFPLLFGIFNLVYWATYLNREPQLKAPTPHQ
Test [7] addresses T6, Mu-type opioid receptor (Homo sapiens, UniProt P35372). Put plainly: biochemical. It is filed as functional.
Test [8] deals with Kappa-type opioid receptor (Homo sapiens, UniProt P41145).
For the next test, the target named is Cannabinoid receptor 1 (Homo sapiens, UniProt P21554).
Chain of Cannabinoid receptor 1 (P21554 whole entry): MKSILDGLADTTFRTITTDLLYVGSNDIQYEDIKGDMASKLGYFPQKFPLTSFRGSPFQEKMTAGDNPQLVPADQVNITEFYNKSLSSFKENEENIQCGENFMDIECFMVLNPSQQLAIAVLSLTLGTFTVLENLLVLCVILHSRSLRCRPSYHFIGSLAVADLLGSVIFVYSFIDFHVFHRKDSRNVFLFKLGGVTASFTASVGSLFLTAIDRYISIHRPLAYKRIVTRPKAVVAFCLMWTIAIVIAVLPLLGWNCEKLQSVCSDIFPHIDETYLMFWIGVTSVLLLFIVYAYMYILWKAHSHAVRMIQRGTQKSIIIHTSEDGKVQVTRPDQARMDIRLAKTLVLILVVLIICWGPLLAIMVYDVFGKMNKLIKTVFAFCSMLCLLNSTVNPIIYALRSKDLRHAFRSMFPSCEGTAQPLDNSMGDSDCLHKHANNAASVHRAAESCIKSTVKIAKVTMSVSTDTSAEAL
Another test has as its target D(1A) dopamine receptor (Homo sapiens, UniProt P21728). It is filed as functional, cell-based.
Test [9] concerns the target Neuronal acetylcholine receptor subunit alpha-4 (Homo sapiens, UniProt P43681).
Test [10] has as its target T7, 5-hydroxytryptamine receptor 2B (Homo sapiens, UniProt P41595). It is filed as functional, cell-based.
A further test addresses D(3) dopamine receptor (Homo sapiens, UniProt P35462).
In test [11] the target is Sodium-dependent noradrenaline transporter (Homo sapiens, UniProt P23975).
Chain of Sodium-dependent noradrenaline transporter (P23975 whole entry): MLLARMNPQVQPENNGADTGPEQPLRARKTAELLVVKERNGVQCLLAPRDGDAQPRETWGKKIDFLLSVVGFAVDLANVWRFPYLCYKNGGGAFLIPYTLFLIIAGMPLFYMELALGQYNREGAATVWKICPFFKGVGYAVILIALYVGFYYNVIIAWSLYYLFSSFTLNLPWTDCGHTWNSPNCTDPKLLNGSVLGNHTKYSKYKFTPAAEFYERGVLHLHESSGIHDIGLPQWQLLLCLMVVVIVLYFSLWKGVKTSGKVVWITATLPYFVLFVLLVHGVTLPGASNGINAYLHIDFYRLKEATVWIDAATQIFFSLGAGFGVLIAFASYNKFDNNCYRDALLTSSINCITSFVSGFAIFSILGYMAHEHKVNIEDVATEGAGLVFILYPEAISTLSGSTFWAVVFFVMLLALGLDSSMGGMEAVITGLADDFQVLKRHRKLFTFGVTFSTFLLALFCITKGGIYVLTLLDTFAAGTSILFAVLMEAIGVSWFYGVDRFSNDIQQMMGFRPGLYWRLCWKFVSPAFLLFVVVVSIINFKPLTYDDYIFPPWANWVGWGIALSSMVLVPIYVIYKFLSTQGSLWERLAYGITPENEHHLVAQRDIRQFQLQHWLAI
The target of test [12] is T5, Gamma-aminobutyric acid receptor subunit alpha-1. It is filed as functional.
The target in test [13] is T7, 5-hydroxytryptamine receptor 2B. It is filed as functional, cell-based. This is another data set of the same source.
For test [14], the target named is T6, Mu-type opioid receptor.
The target of test [15] is Glutamate receptor ionotropic, NMDA 1 (Rattus norvegicus, UniProt P35439).
The next test concerns the target Bile salt export pump (Homo sapiens, UniProt O95342). It is filed as functional.
In test [16] the target is T1, Acetylcholinesterase. It is filed as functional. The source holds these as a separate data set.
Test [17] concerns the target 5-hydroxytryptamine receptor 2A (Homo sapiens, UniProt P28223). The format is functional, cell-based.

The source of these data is ChEMBL document CHEMBL5291721, “A preclinical secondary pharmacology resource illuminates target-adverse drug reaction associations of marketed drugs” (Nat Commun, 2023).
Further: assay procedure not described here.

T1 sequence (P22303 whole entry): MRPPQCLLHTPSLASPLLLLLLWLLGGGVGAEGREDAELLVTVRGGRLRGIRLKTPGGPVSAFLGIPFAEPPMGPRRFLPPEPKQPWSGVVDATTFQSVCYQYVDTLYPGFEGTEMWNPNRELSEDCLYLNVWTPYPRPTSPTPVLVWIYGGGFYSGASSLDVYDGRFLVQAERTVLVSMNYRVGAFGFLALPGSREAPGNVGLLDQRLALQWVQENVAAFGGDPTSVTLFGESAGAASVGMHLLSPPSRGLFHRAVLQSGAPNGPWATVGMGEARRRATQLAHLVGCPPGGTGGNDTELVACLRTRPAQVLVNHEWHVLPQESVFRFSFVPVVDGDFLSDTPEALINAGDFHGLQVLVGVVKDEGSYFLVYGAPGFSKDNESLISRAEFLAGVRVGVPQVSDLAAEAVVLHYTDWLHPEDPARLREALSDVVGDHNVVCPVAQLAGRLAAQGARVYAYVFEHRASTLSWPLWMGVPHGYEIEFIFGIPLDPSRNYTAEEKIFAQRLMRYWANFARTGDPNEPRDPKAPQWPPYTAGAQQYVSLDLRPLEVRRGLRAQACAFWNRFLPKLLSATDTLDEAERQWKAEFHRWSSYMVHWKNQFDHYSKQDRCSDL
T7 sequence (P41595 whole entry): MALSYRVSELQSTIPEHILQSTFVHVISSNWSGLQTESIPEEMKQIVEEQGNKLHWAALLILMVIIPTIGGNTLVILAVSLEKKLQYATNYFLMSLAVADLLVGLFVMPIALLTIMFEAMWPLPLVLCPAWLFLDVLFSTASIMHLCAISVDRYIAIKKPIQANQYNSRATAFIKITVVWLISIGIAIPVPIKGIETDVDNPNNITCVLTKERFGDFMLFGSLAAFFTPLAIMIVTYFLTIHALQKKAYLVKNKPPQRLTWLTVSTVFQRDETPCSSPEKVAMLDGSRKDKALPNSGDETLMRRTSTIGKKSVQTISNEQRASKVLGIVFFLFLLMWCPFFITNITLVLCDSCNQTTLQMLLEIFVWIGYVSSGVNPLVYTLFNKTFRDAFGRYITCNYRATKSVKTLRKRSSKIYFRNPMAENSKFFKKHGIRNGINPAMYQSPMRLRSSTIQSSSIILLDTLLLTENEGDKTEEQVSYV
T6 sequence (P35372 whole entry): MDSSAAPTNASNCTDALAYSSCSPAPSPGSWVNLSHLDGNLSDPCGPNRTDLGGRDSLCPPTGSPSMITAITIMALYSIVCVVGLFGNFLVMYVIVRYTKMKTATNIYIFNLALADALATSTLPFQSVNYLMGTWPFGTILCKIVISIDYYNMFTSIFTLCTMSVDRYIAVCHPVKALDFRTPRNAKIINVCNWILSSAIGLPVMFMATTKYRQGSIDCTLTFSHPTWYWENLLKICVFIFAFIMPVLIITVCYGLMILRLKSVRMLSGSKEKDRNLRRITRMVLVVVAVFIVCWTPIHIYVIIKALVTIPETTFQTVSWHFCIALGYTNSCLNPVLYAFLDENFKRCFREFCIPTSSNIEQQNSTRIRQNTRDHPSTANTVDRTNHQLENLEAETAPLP
Chain of D(1A) dopamine receptor (P21728 whole entry): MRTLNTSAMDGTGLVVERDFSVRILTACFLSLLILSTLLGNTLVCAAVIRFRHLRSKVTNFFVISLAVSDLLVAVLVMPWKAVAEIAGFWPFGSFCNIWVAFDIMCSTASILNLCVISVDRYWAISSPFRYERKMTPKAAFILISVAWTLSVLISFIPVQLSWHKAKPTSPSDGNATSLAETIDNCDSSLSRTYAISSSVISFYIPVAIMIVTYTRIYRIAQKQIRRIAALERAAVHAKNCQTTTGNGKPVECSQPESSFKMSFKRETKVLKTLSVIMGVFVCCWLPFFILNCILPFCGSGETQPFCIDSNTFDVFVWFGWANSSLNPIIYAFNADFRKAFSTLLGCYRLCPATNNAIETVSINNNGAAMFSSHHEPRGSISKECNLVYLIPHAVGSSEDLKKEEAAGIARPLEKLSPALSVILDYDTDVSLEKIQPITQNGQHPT
Chain of D(3) dopamine receptor (P35462 whole entry): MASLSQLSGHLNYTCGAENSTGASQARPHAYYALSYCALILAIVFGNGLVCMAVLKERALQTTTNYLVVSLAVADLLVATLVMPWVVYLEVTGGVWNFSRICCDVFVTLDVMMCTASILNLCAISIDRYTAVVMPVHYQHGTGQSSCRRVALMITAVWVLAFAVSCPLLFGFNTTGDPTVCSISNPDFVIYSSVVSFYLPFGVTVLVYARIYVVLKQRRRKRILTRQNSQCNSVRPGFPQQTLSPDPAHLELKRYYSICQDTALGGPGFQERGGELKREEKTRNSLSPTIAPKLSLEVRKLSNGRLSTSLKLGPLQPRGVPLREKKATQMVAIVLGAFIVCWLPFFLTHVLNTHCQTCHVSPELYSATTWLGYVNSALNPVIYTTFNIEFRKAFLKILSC
Chain of 5-hydroxytryptamine receptor 2A (P28223 whole entry): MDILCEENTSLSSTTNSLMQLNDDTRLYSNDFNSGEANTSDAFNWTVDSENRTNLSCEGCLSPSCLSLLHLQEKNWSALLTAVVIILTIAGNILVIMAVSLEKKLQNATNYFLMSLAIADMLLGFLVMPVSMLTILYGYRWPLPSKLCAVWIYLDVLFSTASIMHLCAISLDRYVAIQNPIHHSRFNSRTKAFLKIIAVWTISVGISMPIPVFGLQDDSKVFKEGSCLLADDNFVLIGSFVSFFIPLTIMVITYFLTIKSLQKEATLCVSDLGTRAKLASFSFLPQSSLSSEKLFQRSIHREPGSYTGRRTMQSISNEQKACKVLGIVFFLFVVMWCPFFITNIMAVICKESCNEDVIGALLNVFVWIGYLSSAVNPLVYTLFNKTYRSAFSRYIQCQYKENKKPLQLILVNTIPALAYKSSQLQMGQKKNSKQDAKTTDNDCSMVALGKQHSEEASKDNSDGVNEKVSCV
Chain of Neuronal acetylcholine receptor subunit alpha-4 (P43681 whole entry): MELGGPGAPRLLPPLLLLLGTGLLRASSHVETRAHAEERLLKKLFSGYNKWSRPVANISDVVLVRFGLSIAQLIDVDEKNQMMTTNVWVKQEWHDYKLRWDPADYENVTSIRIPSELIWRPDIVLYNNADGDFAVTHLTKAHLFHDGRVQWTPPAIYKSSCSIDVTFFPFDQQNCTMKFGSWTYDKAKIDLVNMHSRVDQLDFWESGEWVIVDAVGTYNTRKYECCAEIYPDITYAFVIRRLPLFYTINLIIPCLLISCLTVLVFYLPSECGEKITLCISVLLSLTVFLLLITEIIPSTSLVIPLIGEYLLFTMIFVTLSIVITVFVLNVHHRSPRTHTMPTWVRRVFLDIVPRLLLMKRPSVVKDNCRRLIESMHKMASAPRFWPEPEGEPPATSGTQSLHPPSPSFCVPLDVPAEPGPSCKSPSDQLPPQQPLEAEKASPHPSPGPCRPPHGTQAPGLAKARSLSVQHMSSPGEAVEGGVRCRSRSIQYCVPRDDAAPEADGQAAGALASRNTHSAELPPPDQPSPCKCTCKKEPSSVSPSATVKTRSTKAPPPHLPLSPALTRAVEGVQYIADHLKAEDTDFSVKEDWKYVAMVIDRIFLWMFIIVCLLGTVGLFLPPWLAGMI

Regarding `C[N+]1(C)[C@@H]2CC[C@H]1C[C@@H](OC(=O)C(O)c1ccccc1)C2` (some centres not stated) [METHYLHOMATROPINE], in test [1], the concentration at half-maximal activity (AC50) is > 30 µM.

In the case of `CN1CCN2c3ccccc3Cc3ccccc3C2C1` (configuration not stated) [MIANSERIN], the AC50 on Acetylcholinesterase [2] was > 30 µM; in test [3], 0.05 µM.

`CCN(CC)C(=S)SSC(=S)N(CC)CC`: half-maximal activity on Acetylcholinesterase [2] (AC50) was put at 14.2 µM.

On to `CC/C(=C(/CC)c1ccc(O)cc1)c1ccc(O)cc1` [DIETHYLSTILBESTROL], for which, at Acetylcholinesterase [2], the concentration at half-maximal activity (AC50) is > 30 µM.

Take `NCCCC[C@H](N[C@@H](CCc1ccccc1)C(=O)O)C(=O)N1CCC[C@H]1C(=O)O` [LISINOPRIL ANHYDROUS]: the AC50 at Acetylcholinesterase [2] was > 30 µM.

For `C[N+]1(C)[C@@H]2C[C@@H](OC(=O)C(O)(c3cccs3)c3cccs3)C[C@H]1[C@@H]1O[C@@H]12` [TIOTROPIUM BROMIDE], the AC50 came to 0.0015 µM in test [4] and 0.0003 µM in test [5].

For the molecule `O=C1CC2(CCCC2)CC(=O)N1CCCCN1CCN(c2ncccn2)CC1` [BUSPIRONE], the AC50 is > 10 µM in test [6]; > 30 µM on Mu-type opioid receptor [7]; > 10 µM in test [8]; 17.5 µM on Cannabinoid receptor 1; > 10 µM on D(1A) dopamine receptor; > 10 µM in test [9]. Further, the concentration at half-maximal activity (AC50) is > 10 µM in [10]; 0.048 µM at D(3) dopamine receptor; > 30 µM in test [11]; > 10 µM in test [12]; 7.37 µM in [13]; > 30 µM at Mu-type opioid receptor [14]. The AC50 in test [15] was > 10 µM.

Regarding `Nc1cccc2c1CN(C1CCC(=O)NC1=O)C2=O` (configuration not stated) [LENALIDOMIDE], the AC50 on Bile salt export pump was > 300 µM.

For the molecule `CC(=O)[C@H]1CC[C@H]2[C@@H]3CCC4=CC(=O)CC[C@]4(C)[C@H]3CC[C@]12C` [PROGESTERONE], at Acetylcholinesterase [2], the AC50 was > 30 µM.

Regarding `NC(=O)OC[C@@H]1[C@H](NC(=O)/C(=N\OCC(=O)O)c2csc(N)n2)C(=O)N1S(=O)(=O)O` [CARUMONAM], the half-maximal activity concentration (AC50) on Acetylcholinesterase [16] was > 500 µM.

With `CCCC(=O)Nc1ncnc2c1ncn2[C@@H]1O[C@@H]2COP(=O)(O)O[C@H]2[C@H]1OC(=O)CCC` [BUCLADESINE], on Acetylcholinesterase [2], the AC50 was > 30 µM.

Take `CCN(c1cc(-c2ccc(CN3CCOCC3)cc2)cc(C(=O)NCc2c(C)cc(C)[nH]c2=O)c1C)C1CCOCC1` [TAZEMETOSTAT]: the AC50 (on Acetylcholinesterase [16]; in [17]) was > 30 µM in each case.

For orientation: AC50 means the concentration giving half of the maximal activity seen.
